Read-outs that look alike come from different tables or passages of the source.
Tests used:
Recombinant human SPSB2 = target: T1, Recombinant human SPSB2 (Homo sapiens, UniProt Q99619); test: Surface plasmon resonance (SPR) binding to immobilized hSPSB2; conditions: for Kd: hSPSB2, mean ± SEM of three independent experiments; for fold improved binding affinity compared to disulfide-bridged peptide 24: hSPSB2, versus 24; for fold loss of binding for the minor diastereomer: SPR KD, hSPSB2, minor versus major diastereomer
T1 construct: purchased Abcam ab134592
T1 sequence (Q99619 1-263): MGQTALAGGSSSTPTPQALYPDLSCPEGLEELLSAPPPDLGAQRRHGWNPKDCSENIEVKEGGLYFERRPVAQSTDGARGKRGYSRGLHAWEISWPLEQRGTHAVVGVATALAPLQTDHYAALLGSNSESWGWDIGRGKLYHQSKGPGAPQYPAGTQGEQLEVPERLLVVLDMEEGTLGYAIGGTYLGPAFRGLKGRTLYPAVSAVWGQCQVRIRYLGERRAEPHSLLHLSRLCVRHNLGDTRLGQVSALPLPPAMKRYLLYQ
Method: Example sensorgrams for selected PepNats D1−D4, D7, D8, D10, D12 and D18 interacting with immobilized hSPSB2 using SPR (red). Each PepNat was injected at 0.020 µM, 0.078 µM, 0.313 µM, 1.25 µM and 5 µM concentration in quick succession followed by a longer dissociation time. A binding kinetic model was fitted to each experimental trace (black). All experiments were conducted in triplicates. […]
to the elution profile of the crude product . The relevant fractions containing the desired product were collected, analyzed by RP-HPLC-MS and accordingly pooled and lyophilized.
HRMS were obtained on a Thermo Scientific LTQ Fleet Orbitrap mass spectrometer coupled to an Accela HPLC-System (HPLC column: Hypersyl GOLD, 50 mm x 1 mm, particle size 1.9 μm) equipped with an electron spray ionization source (ESI). The mass detection was recorded in the range of […]
2) B) Biochemical Assays Materials and Methods
Surface Plasmon Resonance (SPR)
All SPR experiments were conducted on a Biacore T200, S200 or 8K instrument (GE Healthcare) at 20 °C using HBS-P+ as running buffer (GE Healthcare). A CM5 sensor chip (GE Healthcare) was conditioned three times at 60 s using 50 mM NaOH, 1 M NaCl prior to standard NHS/EDC activation (e.g. amine coupling in the Biacore instruction manual) of the sensor surface for 420 s.
Recombinant human SPSB2 (product ID: ab134592, Abcam, Cambridge, UK) was diluted to 200 nM using 10 mM Sodium acetate pH 5. 5 and injected over the activated surface for 300 s. This surface and a surface subjected to only NHS/EDC activation were deactivated using 100 mM Tris -HCl, pH 8.0. The empty surface was used as a reference surface.
All PepNat and peptide reference interac tion experiments were conducted by diluting 10 mM DMSO stocks of PepNats and peptide references using digital dispensing (Tecan) to 10 µM, 2.5 µM, 625 nM, 156 nM and 40 nM or 1 µM, 250 nM, 63 nM, 16 nM and 4 nM. All concentrations were serially injected ov er both the SPSB2 containing - and empty surfaces using single -cycle kinetics (GE Healthcare). The resulting sensorgrams were reference - and blank subtracted prior to fitting of the data using a binding kinetic model (Biacore evaluation software).
DNA constructs, cell culturing, transfections and generation of stable cell lines DNA constructs and cell lines were employed as previously described by Durek et al.7 “cDNAs encoding human MC1 (Genbank accession number NM_002386), MC3 (NM_019888), and MC4 (NM_005912) and MC5 (NM_005913) were cloned into the pcDNA4/TO vector (ThermoFisher). In the constructs, a consensus Kozak sequence (GCCACC) was incorporated immediately before the start ATG. DNA was amplified, isolated and sequenced using standard techniques.
T-Rex™-293 cells (ThermoFisher) were cultured in DMEM medium, supplemented with 10% foetal bovine serum and 5 µg/ml blasticidin at 37°C in a humidified atmosphere with 10% CO2.
Lipofectamine 2000 (ThermoFisher) was used for transfections according to the manufacturer’s recommendations. Resistant polyclonal populations were generated by selection with Zeocin (0.3 mg/ml, ThermoFisher) for about two weeks after transfection. Individual clones were iso lated using flow cytometry, subsequently expanded, tested for responsiveness to [Nle 4, DPhe7]-α-Melanocyte Stimulating Hormone (NDP-α-MSH) and cryopreserved.” To induce receptor

[1] = the molecule shown is the open-chain precursor, amine bond, 37-membered ring, then NaBH3CN, DMF, resin, 25.0 °C
[2] = the molecule shown is the open-chain precursor, other bond, 37-membered ring, CH(OMe)3/Et3N, DMF, THF, resin, 25.0 °C, with chain assembly

Molecule: CC[C@H](C)[C@@H]1NC(=O)[C@H](CC(=O)O)NC(=O)[C@H](Cc2ccccc2)N(C)C(=O)[C@H]2N[C@@H](c3ccc(cc3)C(=O)NCCCC[C@@H](C(=O)NCC(N)=O)NC(=O)[C@H](CC(N)=O)NC(=O)[C@H](CC(N)=O)NC(=O)[C@H](CC(N)=O)NC1=O)[C@@H](C(=O)OC)[C@H]2C(=O)OC [D4-minor, [IV-FDINNNK ]G]
- binding to SPSB2 (in words) (Recombinant human SPSB2; SPR, hSPSB2): did not bind
- Kd (Recombinant human SPSB2; SPR): > 10000 nM

Molecule: CC[C@H](C)[C@@H]1NC(=O)[C@H](CC(=O)O)NC(=O)[C@H](Cc2ccccc2)N(C)C(=O)[C@@H]2N[C@H](c3ccc(cc3)C(=O)NCCCC[C@@H](C(=O)NCC(N)=O)NC(=O)[C@H](CC(N)=O)NC(=O)[C@H](CC(N)=O)NC(=O)[C@H](CC(N)=O)NC1=O)C1(C(=O)N(C)C(=O)N(C)C1=O)[C@H]2c1ccccc1 [D7-major, [VII-FDINNNK ]G]
- fold improved binding affinity compared to disulfide-bridged peptide 24 (Recombinant human SPSB2; ratio of SPR KD): 4 fold
- fold higher affinity compared to ortho ether aromatic unit analogue 26 (Recombinant human SPSB2; ratio of SPR KD, hSPSB2, versus 26): 46 fold

Molecule: CC[C@H](C)[C@@H]1NC(=O)[C@H](CC(=O)O)NC(=O)[C@H](Cc2ccccc2)N(C)C(=O)[C@@H]2N[C@H](c3ccc(cc3)C(=O)NCCC[C@@H](C(=O)NCC(N)=O)NC(=O)[C@H](CC(N)=O)NC(=O)[C@H](CC(N)=O)NC(=O)[C@H](CC(N)=O)NC1=O)[C@@H]1C(=O)N(C)C(=O)[C@@H]12 [D8-major, [I-FDINNNOrn ]G]
- Kd (Recombinant human SPSB2; SPR): 282 ± 93 nM

Molecule: CC[C@H](C)[C@@H]1NC(=O)[C@H](CC(=O)O)NC(=O)[C@H](Cc2ccccc2)N(C)C(=O)[C@@H]2N[C@H](c3ccc(cc3)C(=O)NCC[C@@H](C(=O)NCC(N)=O)NC(=O)[C@H](CC(N)=O)NC(=O)[C@H](CC(N)=O)NC(=O)[C@H](CC(N)=O)NC1=O)[C@@H]1C(=O)N(C)C(=O)[C@@H]12 [D9-major, [I-FDINNNDab ]G]
- Kd (Recombinant human SPSB2; SPR): 66 ± 8 nM

Molecule: CC[C@H](C)[C@@H]1NC(=O)[C@H](CC(=O)O)NC(=O)[C@H](Cc2ccccc2)N(C)C(=O)[C@@H]2N[C@H](c3ccc(cc3)C(=O)NC[C@@H](C(=O)NCC(N)=O)NC(=O)[C@H](CC(N)=O)NC(=O)[C@H](CC(N)=O)NC(=O)[C@H](CC(N)=O)NC1=O)[C@@H]1C(=O)N(C)C(=O)[C@@H]12 [D10-major, [I-FDINNNDap ]G]
- Kd (Recombinant human SPSB2; SPR): 72 ± 16 nM

Molecule: CC[C@H](C)[C@@H]1NC(=O)[C@H](CC(=O)O)NC(=O)[C@H](C(C)C)N(C)C(=O)[C@H]2N[C@@H](c3ccc(cc3)C(=O)NCCCC[C@@H](C(=O)NCC(N)=O)NC(=O)[C@H](CC(N)=O)NC(=O)[C@H](CC(N)=O)NC(=O)[C@H](CC(N)=O)NC1=O)[C@H]1C(=O)N(C)C(=O)[C@H]12 [D13-minor, [I-VDINNNK ]G]
- fold loss of binding for the minor diastereomer (Recombinant human SPSB2): 5 fold

Molecule: CC[C@H](C)[C@@H]1NC(=O)[C@H](CC(=O)O)NC(=O)[C@@H](Cc2ccccc2)N(C)C(=O)[C@@H]2N[C@H](c3ccc(cc3)C(=O)NCCCC[C@@H](C(=O)NCC(N)=O)NC(=O)[C@H](CC(N)=O)NC(=O)[C@H](CC(N)=O)NC(=O)[C@H](CC(N)=O)NC1=O)[C@@H]1C(=O)N(C)C(=O)[C@@H]12 [D15-major, [I-fDINNNK ]G]
- Kd (Recombinant human SPSB2; SPR): > 10000 nM

Molecule: CC[C@H](C)[C@@H]1NC(=O)[C@H](CC(=O)O)NC(=O)[C@H](Cc2ccccc2)N(C)C(=O)[C@@H]2N[C@H](c3ccc(cc3)C(=O)NC[C@@H](C(=O)NCC(N)=O)NC(=O)[C@H](CC(N)=O)NC(=O)[C@H](CC(N)=O)NC(=O)[C@H](CC(N)=O)NC1=O)[C@@H]1C(=O)N(c3ccccc3)C(=O)[C@@H]12 [D17-major, [II-FDINNNDap ]G]
- Kd (Recombinant human SPSB2; SPR): 1080 ± 76 nM

Molecule: CC[C@H](C)[C@@H]1NC(=O)[C@H](CC(=O)O)NC(=O)[C@H](C(C)C)N(C)C(=O)[C@@H]2N[C@H](c3ccc(cc3)C(=O)NCCCC[C@@H](C(=O)NCC(N)=O)NC(=O)[C@H](CC(N)=O)NC(=O)[C@H](CC(N)=O)NC(=O)[C@H](CC(N)=O)NC1=O)[C@@H]1C(=O)N(c3ccccc3)C(=O)[C@@H]12 [D18-major, [II-VDINNNK ]G]
- fold improved binding affinity compared to disulfide-bridged peptide 24 (Recombinant human SPSB2; ratio of SPR KD): 7 fold
- fold improved binding affinity compared to cyclic peptide 25 (Recombinant human SPSB2; ratio of SPR KD, hSPSB2, versus 25): 36 fold
- fold better affinity than 27 (Recombinant human SPSB2; ratio of SPR KD, hSPSB2, versus 27): 40 fold

Molecule: CC[C@H](C)[C@@H]1NC(=O)[C@H](CC(=O)O)NC(=O)[C@H](C(C)C)N(C)C(=O)[C@H]2N[C@@H](c3ccc(cc3)C(=O)NCCCC[C@@H](C(=O)NCC(N)=O)NC(=O)[C@H](CC(N)=O)NC(=O)[C@H](CC(N)=O)NC(=O)[C@H](CC(N)=O)NC1=O)[C@H]1C(=O)N(c3ccccc3)C(=O)[C@H]12 [D18-minor, [II-VDINNNK ]G]
- fold loss of binding for the minor diastereomer (Recombinant human SPSB2): 63 fold

Molecule: H-Gly-MePhe-Ala-Leu-Phe-Pro-Gly-Phe-Lys(4-formylbenzoyl)-Gly-resin
- ring closure, conversion ([1]; 1% AcOH): 91%
- ring closure, conversion ([1]; 5% AcOH): 99%
- ring closure, conversion ([1]; Et3N/4A MS): 4%
- ring closure, yield after HPLC ([2]; then 10/LiBr/Et3N): 14%
- ring closure, yield after HPLC ([2]; then 11/LiBr/Et3N): 8%

Reference: article PMC7307906, “Macrocyclic Modalities Combining Peptide Epitopes and Natural Product Fragments” (Journal of the American Chemical Society, 2020)
